This passage reports EC50 and MIC results from patent US20230114728A1 (Venatorx Pharmaceuticals, Inc., priority 2019, published 2023).

The target of one experiment is A. baumannii PBP1a (Acinetobacter baumannii, UniProt A0ABX6CK30). Briefly: Bocillin-FL fluorescence polarization competition binding assay, A. baumannii PBP1a. The settings on record: fluorescence polarization competition binding assay using Bocillin-FL; column 1; read-out: A. baumannii PBP1a Potency. In general terms: In fluorescence polarisation assays a small probe gives low polarisation when free and higher when bound to something large.
Sequence of A. baumannii PBP1a (A0ABX6CK30 entry or part of it): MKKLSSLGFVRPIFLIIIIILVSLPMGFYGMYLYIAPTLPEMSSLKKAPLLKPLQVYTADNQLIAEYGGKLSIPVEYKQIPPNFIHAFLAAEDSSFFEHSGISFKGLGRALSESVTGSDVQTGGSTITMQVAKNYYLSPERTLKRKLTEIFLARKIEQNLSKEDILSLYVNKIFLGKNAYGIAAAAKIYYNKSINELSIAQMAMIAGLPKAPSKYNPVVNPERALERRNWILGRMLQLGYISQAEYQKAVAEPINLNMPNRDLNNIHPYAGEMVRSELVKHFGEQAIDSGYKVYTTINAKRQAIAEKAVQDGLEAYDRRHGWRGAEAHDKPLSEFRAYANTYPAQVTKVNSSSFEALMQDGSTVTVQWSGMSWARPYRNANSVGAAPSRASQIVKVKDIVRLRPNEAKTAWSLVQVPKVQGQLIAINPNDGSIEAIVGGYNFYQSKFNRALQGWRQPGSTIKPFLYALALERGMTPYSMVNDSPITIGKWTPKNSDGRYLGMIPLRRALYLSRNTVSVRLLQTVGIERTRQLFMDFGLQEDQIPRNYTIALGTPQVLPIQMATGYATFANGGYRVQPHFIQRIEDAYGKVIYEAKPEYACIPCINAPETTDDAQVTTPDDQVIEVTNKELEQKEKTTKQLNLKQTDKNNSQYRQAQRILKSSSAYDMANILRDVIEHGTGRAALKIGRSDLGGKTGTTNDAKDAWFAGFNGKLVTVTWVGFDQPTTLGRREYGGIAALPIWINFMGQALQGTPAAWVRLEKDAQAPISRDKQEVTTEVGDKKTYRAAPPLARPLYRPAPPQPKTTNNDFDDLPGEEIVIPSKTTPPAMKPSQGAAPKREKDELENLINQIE

Experiment [1] is described as follows: Bocillin-FL fluorescence polarization competition binding assay, A. baumannii PBP3. The conditions noted are these: fluorescence polarization competition binding assay using Bocillin-FL; column 3; read-out: 4. baumannii PBP1a Potency. Summed up:
(§1)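 A. baumannii PBP2 (2.5 μM) and PBP3 (0.2 μM) were run in 25 mM Tris pH 8.0 buffer with Tween 20; E. coli PBP3 (1.5 μM) and N. gonorrhoeae PBP2 ([…]) in 50 mM Hepes pH 8.0 buffer.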

In another experiment the target is T1, N. gonorrhoeae PBP2 (Neisseria gonorrhoeae, UniProt P08149).
T1 construct: made in house
T1 sequence (P08149 whole entry): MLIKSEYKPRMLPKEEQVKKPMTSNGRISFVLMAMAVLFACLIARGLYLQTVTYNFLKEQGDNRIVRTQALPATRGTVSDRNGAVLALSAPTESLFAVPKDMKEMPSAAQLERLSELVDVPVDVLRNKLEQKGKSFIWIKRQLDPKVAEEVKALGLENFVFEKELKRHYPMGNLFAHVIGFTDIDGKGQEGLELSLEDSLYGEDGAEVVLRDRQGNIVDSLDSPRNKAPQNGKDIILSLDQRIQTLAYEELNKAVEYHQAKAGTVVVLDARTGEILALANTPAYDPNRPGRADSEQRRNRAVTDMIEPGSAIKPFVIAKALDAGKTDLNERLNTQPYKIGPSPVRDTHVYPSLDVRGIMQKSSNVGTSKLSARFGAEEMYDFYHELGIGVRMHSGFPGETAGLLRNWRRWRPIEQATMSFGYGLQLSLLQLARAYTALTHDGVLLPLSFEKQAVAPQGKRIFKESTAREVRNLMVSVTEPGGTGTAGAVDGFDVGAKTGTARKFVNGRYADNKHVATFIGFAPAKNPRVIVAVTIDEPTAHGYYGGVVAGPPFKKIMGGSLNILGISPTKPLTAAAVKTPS
Description: Bocillin-FL fluorescence polarization competition binding assay, N. gonorrhoeae PBP2. The settings on record: fluorescence polarization competition binding assay using Bocillin-FL; read-out: N. gonorrhoeae PBP2 Potency. A digest of the protocol:
as §1

The test system of experiment [2] is A. baumannii CDC-0045 producing TEM-1D, OXA-23, and OXA-69. Description: Broth microdilution MIC in iron-depleted CAMHB (IDM). The experiment is classed as cell-based. The conditions noted are these: Acinetobacter baumannii, read-out: Minimum Inhibitory Concentration, CDC-0045. On the technique in general: Broth dilution looks for growth in wells or tubes with falling amounts of substance.

The next experiment has as its system P. aeruginosa CDC-0110. The description is as above. The conditions noted are these: Pseudomonas aeruginosa, CDC0110, read-out: Minimum Inhibitory Concentration, P. aeruginosa CDC-0110. The format is cell-based. Summed up: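 MIC is the lowest well showing no visible growth after 16-20 h at 37 °C, starting from 2-8×10^5 CFU/mL in 2-fold serial compound dilutions. Medium: cation-adjusted Mueller Hinton broth iron-depleted with Chelex 100, supplemented back with Ca, Mg and Zn, pH 7.3; CLSI protocol.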

The structures appear in SMILES notation. ≈ marks a conversion by molar mass, not a printed value.

On to `CCN1CCN(C(=O)N[C@@H](C(=O)N[C@H]2Cc3cccc(C(=O)O)c3OB2O)c2c(O)cc(O)cc2F)C(=O)C1=O` (single isomer, unassigned) [Example 182], for which the EC50 (at A. baumannii PBP1a; in experiment [1]; at N. gonorrhoeae PBP2) was > 100 µM in each case.

As to `NCCN1CCN(C(=O)N[C@@H](C(=O)N[C@H]2Cc3cccc(C(=O)O)c3OB2O)c2ccc(O)c(Cl)c2F)C(=O)C1=O` (single isomer, unassigned) [Example 186], the EC50 on N. gonorrhoeae PBP2 was < 10 µM.

Take `NCCN1CCN(C(=O)N[C@H](C(=O)N[C@H]2Cc3cccc(C(=O)O)c3OB2O)c2ccc(O)c(Cl)c2F)C(=O)C1=O` (single isomer, unassigned) [Example 187]: the EC50 on N. gonorrhoeae PBP2 was in the range of 10 to 30 µM.

As to `NCCN1CCN(C(=O)N[C@@H](C(=O)N[C@H]2Cc3cccc(C(=O)O)c3OB2O)c2c(O)cc(O)cc2F)C(=O)C1=O` (single isomer, unassigned) [Example 194], on N. gonorrhoeae PBP2, the EC50 lay within 30 to 100 µM.

`NCCCN1CCN(C(=O)N[C@@H](C(=O)N[C@H]2Cc3cccc(C(=O)O)c3OB2O)c2c(O)cc(O)cc2F)C(=O)C1=O` (single isomer, unassigned) [Example 195]: the EC50 on N. gonorrhoeae PBP2 is 10 to 30 µM.

For `NCCN1CCN(C(=O)N[C@@H](C(=O)N[C@H]2Cc3cccc(C(=O)O)c3OB2O)c2ccc(O)c([N+](=O)[O-])c2)C(=O)C1=O` (single isomer, unassigned) [Example 199], on N. gonorrhoeae PBP2, the EC50 lay within 10 to 30 µM.

With `NCCN1CCN(C(=O)N[C@H](C(=O)N[C@H]2Cc3cccc(C(=O)O)c3OB2O)c2ccc(O)c([N+](=O)[O-])c2)C(=O)C1=O` (single isomer, unassigned) [Example 200], the EC50 at N. gonorrhoeae PBP2 is > 100 µM.

As to `CCN1CCN(C(=O)N[C@H](C(=O)N[C@H]2Cc3cccc(C(=O)O)c3OB2O)c2ccc(C(=O)O)c(F)c2Cl)C(=O)C1=O` (single isomer, unassigned) [Example 202], at N. gonorrhoeae PBP2, the EC50 was > 100 µM.

Regarding `CCN1CCN(C(=O)N[C@@H](C(=O)N[C@H]2Cc3cccc(C(=O)O)c3OB2O)c2ccc(C(=O)O)c(F)c2Cl)C(=O)C1=O` (single isomer, unassigned) [Example 203], the EC50 at N. gonorrhoeae PBP2 is < 10 µM.

`CCN1CCN(C(=O)N[C@@H](C(=O)N[C@H]2Cc3ccc(F)c(C(=O)O)c3OB2O)c2c(Cl)cc(O)c(O)c2F)C(=O)C1=O` (single isomer, unassigned) [Example 207]: the results for the MIC (in experiment [2]; with P. aeruginosa CDC-0110) were > 128 µg/mL and 2 to 4 µg/mL (≈ 3.27 to 6.55 µM), respectively. The EC50 in experiment [1] fell in the range of 10 to 30 µM.

In the case of `C[C@H]1CN(CCNC(=O)c2ccc(O)c(O)c2Cl)C(=O)C(=O)N1C(=O)NC(C(=O)N[C@H]1Cc2cccc(C(=O)O)c2OB1O)c1ncc(O)cc1F` (stereo partly drawn) [Example 2, (3R)-3-(2-((S)-4-(2-(2-chloro-3,4-dihydroxybenzamido)ethyl)-6-methyl-2,3-dioxopiperazine-1-carboxamido)-2-(3-fluoro-5-hydroxypyridin-2-yl)acetamido)-2-hydroxy-3,4-dihydro-2H-benzo[e][1,2]oxaborinine-8-carboxylic acid], the EC50 on A. baumannii PBP1a is 10 to 30 µM; in experiment [1] it was < 10 µM. The MIC (in experiment [2]; in the experiment with P. aeruginosa CDC-0110) was 2 to 4 µg/mL (≈ 2.69 to 5.38 µM) in each case.

Regarding `NCCCN1CCN(C(=O)NC(C(=O)N[C@H]2Cc3cccc(C(=O)O)c3OB2O)c2c(F)cc(O)cc2F)C(=O)C1=O` (stereo partly drawn) [Example 183, (3R)-3-(2-(4-(3-aminopropyl)-2,3-dioxopiperazine-1-carboxamido)-2-(2,6-difluoro-4-hydroxyphenyl)acetamido)-2-hydroxy-3,4-dihydro-2H-benzo[e][1,2]oxaborinine-8-carboxylic acid], the EC50 on N. gonorrhoeae PBP2 is < 10 µM.

Consider `CCN1CCN(C(=O)NC(C(=O)N[C@H]2Cc3cccc(C(=O)O)c3OB2O)c2cc([N+](=O)[O-])c(O)cc2F)C(=O)C1=O` (stereo partly drawn) [Example 184, (3R)-3-(2-(4-ethyl-2,3-dioxopiperazine-1-carboxamido)-2-(2-fluoro-4-hydroxy-5-nitrophenyl)acetamido)-2-hydroxy-3,4-dihydro-2H-benzo[e][1,2]oxaborinine-8-carboxylic acid], for which, at N. gonorrhoeae PBP2, the EC50 was < 10 µM.

Regarding `CCN1CCN(C(=O)NC(C(=O)N[C@H]2Cc3cccc(C(=O)O)c3OB2O)c2ccc(O)c(Cl)c2F)C(=O)C1=O` (stereo partly drawn) [Example 185, (3R)-3-(2-(3-chloro-2-fluoro-4-hydroxyphenyl)-2-(4-ethyl-2,3-dioxopiperazine-1-carboxamido)acetamido)-2-hydroxy-3,4-dihydro-2H-benzo[e][1,2]oxaborinine-8-carboxylic acid], the EC50 at N. gonorrhoeae PBP2 was < 10 µM.

As to `CCN1CCN(C(=O)NC(C(=O)N[C@H]2Cc3cccc(C(=O)O)c3OB2O)c2c(F)cc(NC(C)=O)cc2F)C(=O)C1=O` (stereo partly drawn) [Example 188, (3R)-3-(2-(4-acetamido-2,6-difluorophenyl)-2-(4-ethyl-2,3-dioxopiperazine-1-carboxamido)acetamido)-2-hydroxy-3,4-dihydro-2H-benzo[e][1,2]oxaborinine-8-carboxylic acid], the EC50 (in experiment [1]; at N. gonorrhoeae PBP2) was < 10 µM each time.

As to `CCN1CCN(C(=O)NC(C(=O)N[C@H]2Cc3cccc(C(=O)O)c3OB2O)c2cc(C#N)c(OC)cc2F)C(=O)C1=O` (stereo partly drawn) [Example 192, (3R)-3-(2-(5-cyano-2-fluoro-4-methoxyphenyl)-2-(4-ethyl-2,3-dioxopiperazine-1-carboxamido)acetamido)-2-hydroxy-3,4-dihydro-2H-benzo[e][1,2]oxaborinine-8-carboxylic acid], on N. gonorrhoeae PBP2, the EC50 fell in the range of 10 to 30 µM.

Consider `O=C(O)c1cccc2c1OB(O)[C@@H](NC(=O)C(NC(=O)N1CCN(CC3CNC3)C(=O)C1=O)c1c(F)cc(O)cc1F)C2` (stereo partly drawn) [Example 193, (3R)-3-(2-(4-(azetidin-3-ylmethyl)-2,3-dioxopiperazine-1-carboxamido)-2-(2,6-difluoro-4-hydroxyphenyl)acetamido)-2-hydroxy-3,4-dihydro-2H-benzo[e][1,2]oxaborinine-8-carboxylic acid], for which the EC50 on N. gonorrhoeae PBP2 lay within 10 to 30 µM.

On to `CCN1CCN(C(=O)NC(C(=O)N[C@H]2Cc3cccc(C(=O)O)c3OB2O)c2ccc(C(=O)O)c(O)c2)C(=O)C1=O` (stereo partly drawn) [Example 196, (3R)-3-(2-(4-carboxy-3-hydroxyphenyl)-2-(4-ethyl-2,3-dioxopiperazine-1-carboxamido)acetamido)-2-hydroxy-3,4-dihydro-2H-benzo[e][1,2]oxaborinine-8-carboxylic acid], for which the EC50 on N. gonorrhoeae PBP2 is < 10 µM.

Regarding `CCN1CCN(C(=O)NC(C(=O)N[C@H]2Cc3cccc(C(=O)O)c3OB2O)c2ccc(C(=O)O)c(Cl)c2Cl)C(=O)C1=O` (stereo partly drawn) [Example 201, (3R)-3-(2-(4-carboxy-2,3-dichlorophenyl)-2-(4-ethyl-2,3-dioxopiperazine-1-carboxamido)acetamido)-2-hydroxy-3,4-dihydro-2H-benzo[e][1,2]oxaborinine-8-carboxylic acid], the EC50 on N. gonorrhoeae PBP2 was 10 to 30 µM.

As to `CS(=O)(=O)N1CCN(C(=O)NC(C(=O)N[C@H]2Cc3ccc(F)c(C(=O)O)c3OB2O)c2c(Cl)cc(O)c(O)c2F)C1=O` (stereo partly drawn) [Example 208, (3R)-3-(2-(6-chloro-2-fluoro-3,4-dihydroxyphenyl)-2-(3-(methylsulfonyl)-2-oxoimidazolidine-1-carboxamido)acetamido)-7-fluoro-2-hydroxy-3,4-dihydro-2H-benzo[e][1,2]oxaborinine-8-carboxylic acid], the MIC is > 128 µg/mL in experiment [2] and 8 to 16 µg/mL (≈ 12.6 to 25.3 µM) in the experiment with P. aeruginosa CDC-0110. For the same compound, in experiment [1], the EC50 was in the range of 30 to 100 µM.

On to `CCN1CCN(C(=O)N[C@H](C(=O)N[C@H]2Cc3ccc(F)c(C(=O)O)c3OB2O)c2ccc(O)c(O)c2)C(=O)C1=O` [Example 210, (R)-3-((S)-2-(3,4-dihydroxyphenyl)-2-(4-ethyl-2,3-dioxopiperazine-1-carboxamido)acetamido)-7-fluoro-2-hydroxy-3,4-dihydro-2H-benzo[e][1,2]oxaborinine-8-carboxylic acid], for which the MIC (in experiment [2]; in the experiment with P. aeruginosa CDC-0110) was > 128 µg/mL each time. In addition, in experiment [1], the EC50 was > 100 µM.

With `CCN1CCN(C(=O)N[C@@H](C(=O)N[C@H]2Cc3ccc(F)c(C(=O)O)c3OB2O)c2ccc(O)c(O)c2)C(=O)C1=O` [Example 211, (R)-3-((R)-2-(3,4-dihydroxyphenyl)-2-(4-ethyl-2,3-dioxopiperazine-1-carboxamido)acetamido)-7-fluoro-2-hydroxy-3,4-dihydro-2H-benzo[e][1,2]oxaborinine-8-carboxylic acid], the MIC is > 128 µg/mL in experiment [2] and 2 to 4 µg/mL (≈ 3.58 to 7.16 µM) with P. aeruginosa CDC-0110. Also, the EC50 in experiment [1] was in the range of 30 to 100 µM.

Consider `NCCN1CCN(C(=O)N[C@@H](C(=O)N[C@H]2Cc3ccc(F)c(C(=O)O)c3OB2O)c2c(F)c(F)c(O)c(O)c2Cl)C(=O)C1=O` [Example 226, (R)-3-((R)-2-(4-(2-aminoethyl)-2,3-dioxopiperazine-1-carboxamido)-2-(2-chloro-5,6-difluoro-3,4-dihydroxyphenyl)acetamido)-7-fluoro-2-hydroxy-3,4-dihydro-2H-benzo[e][1,2]oxaborinine-8-carboxylic acid], for which the MIC fell in the range of 8 to 16 µg/mL (≈ 12.4 to 24.9 µM) in experiment [2] and 0.5 to 1 µg/mL (≈ 0.777 to 1.55 µM) in the experiment on P. aeruginosa CDC-0110. For the same compound, the EC50 in experiment [1] is > 100 µM.
